# Assay results taken from US9551718B2, “TMEM120A ion channel modulator” (priority 2014, dated 2017).
# Tests used:
# [1] = target: T1, TMEM120A (Homo sapiens, UniProt Q9BXJ8); experiment: Cobalt precipitate accumulation in CHO cells stably expressing TMEM120A exposed to hypotonic media; type: cell-based; conditions: cells pretreated with blocker
# T1 construct: expressed in transfected cells
# T1 sequence (Q9BXJ8 1-343): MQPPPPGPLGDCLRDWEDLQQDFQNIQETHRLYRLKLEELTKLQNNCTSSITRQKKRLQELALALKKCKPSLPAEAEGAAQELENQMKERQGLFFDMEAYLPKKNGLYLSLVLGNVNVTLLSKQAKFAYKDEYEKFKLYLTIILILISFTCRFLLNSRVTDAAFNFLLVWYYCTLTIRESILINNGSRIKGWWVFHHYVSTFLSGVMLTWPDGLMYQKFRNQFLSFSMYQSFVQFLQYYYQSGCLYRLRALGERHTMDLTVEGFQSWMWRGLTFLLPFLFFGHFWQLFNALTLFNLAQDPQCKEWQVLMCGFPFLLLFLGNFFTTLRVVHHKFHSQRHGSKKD
# Text: In an embodiment, the assay comprises exposing CHO cells stably expressing TMEM120A (or controls) to hypotonic media. The membrane stretch caused by the swelling opens the channels, enabling the influx of calcium ions and other molecules such as cobalt if present in the media. Quantitating the ion channel activity after the cobalt enters the cells can comprise treating the cells with ammonium sulphide (1.2% Sigma # A1952), then fixing them with paraformaldehyde, then amplified through the silver enhancement method and measuring the amount of cobalt precipitate compared to a control.
# CHO cells stably expressing TMEM120A (or controls) were exposed to hypotonic media. The membrane stretch caused by the swelling opens the channels, enabling the influx of calcium ions. In one alternative, calcium ions are substituted for cobalt After cobalt enters the cells, it is precipitated with ammonium sulfide, then the cells are fixed for example with paraformaldehyde, the precipitate is amplified through the silver enhancement method (by following steps provided by the commercial supplier, Sigma).
# [2] = system: mechanically-activated slowly-adapting (SA) current; conditions: sensory neurons; cited from earlier work
# [3] = system: OA mice; experiment: Behavioral pain score in the OA mouse model after injection of an MSC blocker; type: in vivo; conditions: injection around 28 days following MIA
# Protocol: (§1) Osteoarthritis is induced by injection of MIA (25 μg dissolved in 5 μl physiological saline) in the mouse knee joint. Control mice receive saline injection. The previously-described knee-bend test^28 is used to assess mechanical allodynia at the primary site of OA pain, as this test provides information regarding pain induced by movement of the affected joint^28 (FIG. 2a). Briefly, each test consists of 5 flexions and 5 extensions of the knee joint, and the total number of vocalization/struggle is recorded. The knee mechanical withdrawal threshold is determined with the Pressure Application Measurement (PAM) device, as previously described^132. Briefly, mice are gently restrained and a force transducer wrapped around the experimenter's thumb is pressed against the knee joint. […] Once the mouse withdraws its knee, the sensor identifies the maximum force applied before the withdrawal.
# In an in vivo mouse OA model as described in Example 1, the OA mice further received around 28 days following injection of MIA an injection of a vehicle or either a toxin (GsMTx4 or gadolinium) blocking the MSCs.
# [4] = system: MIA injected mice; experiment: Knee flexion-extension pain score after intra-articular injection in MIA mice; type: in vivo, mouse; conditions: for analgesia, knee flexion-extension pain score: intra-articular
# Protocol: as §1
# The GsMTx4 peptide sequence is […] (SEQ ID NO: 5). […] Moreover, it confirms that intra-articular injections can reach the nerve terminals of knee-innervating nociceptors. […] This indicates the analgesia is not due to the peptide leaking out of the joint to have a systemic effect. N=6-10 for GsMTx4 injections, N=9 for all groups in lidocaine trial.
# [5] = system: TMEM120A; experiment: shRNA knockdown of TMEM120A in kidney epithelial cells (mIMCD), mechanosensitivity; type: cell-based, mouse; conditions: lentiviral particles
# Protocol: Knockdown was performed by infecting the cells in culture with lentiviral particles expressing an shRNA against TMEM120A and a puromycin resistance gene. This mean of selection enabled to identify cells that had taken up the shRNA. A quantitative polymerase chain reaction was then performed to verify that mRNA levels for TMEM120A were down. The shRNA sequence is […] TTTG (SEQ ID NO: 4).
# [6] = system: cationic stretch-activated ion channels; conditions: from the extracellular side; cited from earlier work
# [7] = system: MSC activity in knee-innervating nociceptors; experiment: Outside-out patch recording of mechanically-evoked MSC current in knee-innervating nociceptors; type: cell-based, mouse
# Protocol: Isolated mouse sensory neurons are obtained by enzymatic digestion of the dorsal root ganglia L3-L4 followed by mechanical dispersion. Joint-innervating neurons are identified by the presence of Fluorogold (FG), a retrograde tracer injected in the knee joint 72 hours prior to dissection. […] Transgenic mice that express the fluorescent protein TdTomato in nociceptors are generated by crossing Crerecombinase-dependent TdTomato reporter mice to Trpv1-Cre mice (FIG. 4). In this approach, recording can be made specifically from articular nociceptors (FG- and TdTomato-positive neurons).
# Experiments are done for example 1 hour after plating the isolated neurons in petri dishes, or after 3 days in culture (for example for conducting siRNA experiments). Whole-cell^137,138 and cell-attached^100,102 recordings are obtained using glass pipettes mounted to amplifier headstages driven by motorized micromanipulators. Signals are amplified using multi-clamp 700B amplifiers. All experimental protocols, data acquisition and analysis are performed using the Clampex® and Clampfit™ software.
# MSCs are activated using different approaches. In whole-cell recordings, a computer driven stimulating probe is brought near the cell membrane, then brief steps of 0.5 μm amplitude are made toward the cell at a 45 degree angle using a motorized 3-axis micromanipulator. In cell-attached recordings, brief pulses of negative pressure are applied through the recording electrode to increase membrane tension and evoke MSC opening. These pressure pulses are generated by a high-speed pressure clamp device previously validated^100,102.
# An outside-out patch is formed and the minimal positive pressure (+P) is applied to open MSCs. 5 μM GsMTx4 is superfused and the protocol is run again. GsMTx4 is then washed and the same patch undergoes one final protocol run. […] Likewise, wash causes the recovery of the reduction (Kruskal-Wallis with Dunn's multiple comparisons, n=161, 85, 100 for control, GsMTx4 and wash, respectively.
# [8] = system: OA mice; experiment: Von Frey test of secondary mechanical allodynia after hindpaw injection; type: in vivo, mouse
# Protocol: Von Frey filaments are used to assess the secondary mechanical allodynia in the hindpaw (FIG. 2a). Mechanical withdrawal threshold is assessed by touching the plantar surface of the hindpaw with von Frey filaments using the up-down method as previously described^133. Positive withdrawals are counted as biting, licking and/or withdrawal of the paw during the 3 sec stimulus. In the knee-bend and PAM tests, MSC blockers are injected in the knee joint. In the von Frey test, they are injected in the intraplantar region.
# To determine whether MSCs in nerve terminals at the primary site of the pathology (knee) contribute to mechanical allodynia in OA, the MSC blockers, GsMTx4 or gadolinium are injected in the knee joint of OA mice. Behavioral experiments include the knee-bend test^28 and the knee mechanical withdrawal test. To determine if MSCs contribute to secondary mechanical allodynia, GsMTx4 or gadolinium is injected in the ipsilateral hindpaw and assess secondary allodynia using the von Frey test. To determine whether these channels contribute to mechanosensitivity in the absence of allodynia, the blockers are injected in the knee joint or hindpaw of control mice.
molecule,measurement,setting,value
[Gd] [gadolinium],accumulation of cobalt precipitate on hypotonic stimuli,[1],accumulation can be prevented
same,block of SA current,[2],blocked
same,pain level as measured by a behavioral score,[3],significantly decreases the pain level
CCN(CC)CC(=O)Nc1c(C)cccc1C [lidocaine],percentage of analgesia,"[4]; 5% in DMSO, intra-articular injection, vs vehicle",significantly larger percentage of analgesia compared to vehicle
N.N.N.N.N.N.N.N.N.N.N.N.N.N.[Cl-].[Cl-].[Cl-].[Cl-].[Cl-].[Cl-].[O-2].[O-2].[Ru+3].[Ru+3].[Ru+4] [ruthenium red],block of SA current,[2],blocked
"CCGGTTCCTGCTGGTCTGGTATTATCTCGAGATAATACCAGACCAGCAGGAATT TTTG (CCGGTTCCTGCTGGTCTGGTATTATCTCGAGATAATACCAGACCAGCAGGAATTTTTG; expressed or natural sequence) [shRNA against TMEM120A, short hairpin RNA against TMEM120A expressed from lentiviral particles]",mechanosensitivity,[5],reduces mechanosensitivity
GCLEFWWKCNPNDDKCCRPKLKCSKLFKLCNFSF (listed as Grammostola spatulata) [GsMTx4],block of cationic stretch-activated ion channels,[6],block cationic stretch-activated ion channels
same,mean open time of the channel,"[7]; 5 μM superfused, outside-out patch",mean open time is also significantly reduced
same,mechanically-evoked current (normalized to control trace),"[7]; 5 μM superfused, outside-out patch, minimal positive pressure",significantly reduces the mechanically-evoked current
same,reversibility of current reduction on wash,[7]; after wash of 5 μM GsMTx4,this reduction is recovered following wash
same,accumulation of cobalt precipitate on hypotonic stimuli,[1],accumulation can be prevented
same,secondary allodynia,[8]; intraplantar injection 15 days after OA induction,significant and reversible attenuation of the secondary allodynia
same,mechanical sensitivity (withdrawal threshold),"[8]; intraplantar injection, naïve mice",does not affect mechanical sensitivity
same,duration of effect on mechanical hypersensitivity,"[8]; ipsilateral hindpaw injection, MIA mice",≤ 24 h
same,block of SA current,[2],blocked
same,pain level as measured by a behavioral score,[3],significantly decreases the pain level
same,"analgesia, knee flexion-extension pain score",[4]; 5 μM,unable to produce analgesia
same,"analgesia, knee flexion-extension on the ipsilateral knee",[4]; 50 μM injected in the contralateral knee,does not provide analgesia
same,"analgesia, knee flexion-extension pain score","[4]; 50 μM, ipsilateral knee, vs saline",significant analgesia compared to vehicle
